Reference: the CheMixHub viscosity set

Test: xn = mol fraction of the nth substance listed

CCOC=O + CCCC(C)O
viscosity [mPa·s], 100 kPa
Details | x1 = 0.0826 | x1 = 0.1603 | x1 = 0.2396 | x1 = 0.3504 | x1 = 0.4402 | x1 = 0.5595 | x1 = 0.6497 | x1 = 0.74 | x1 = 0.8501 | x1 = 0.9381
293.15 K | 2.84 | 2.16 | 1.73 | 1.34 | 1.12 | 0.91 | 0.78 | 0.65 | 0.52 | 0.45
298.15 K | 2.5 | 1.96 | 1.57 | 1.23 | 1.02 | 0.85 | 0.73 | 0.6 | 0.49 | 0.43
303.15 K | 2.2 | 1.74 | 1.4 | 1.11 | 0.93 | 0.77 | 0.67 | 0.57 | 0.46 | 0.41
308.15 K | 1.9 | 1.53 | 1.23 | 0.98 | 0.84 | 0.7 | 0.6 | 0.52 | 0.43 | 0.39
313.15 K | 1.6 | 1.3 | 1.05 | 0.86 | 0.75 | 0.63 | 0.54 | 0.46 | 0.4 | 0.36
318.15 K | 1.32 | 1.06 | 0.89 | 0.73 | 0.64 | 0.54 | 0.47 | 0.41 | 0.36 | 0.33
323.15 K | 1.06 | 0.84 | 0.7 | 0.59 | 0.53 | 0.45 | 0.4 | 0.36 | 0.33 | 0.31

ClCCl + CCCCC
298.15 K, 101 kPa
Details | viscosity [mPa·s]
x2 = 0.05 | 0.403
x2 = 0.1 | 0.384
x2 = 0.1023 | 0.379
x2 = 0.15 | 0.366
x2 = 0.1992 | 0.345
x2 = 0.2 | 0.348
x2 = 0.25 | 0.332
x2 = 0.3 | 0.317
x2 = 0.3043 | 0.314
x2 = 0.35 | 0.303
x2 = 0.4 | 0.29
x2 = 0.4032 | 0.29
x2 = 0.45 | 0.28
x2 = 0.5 | 0.27
x2 = 0.5097 | 0.269
x2 = 0.55 | 0.262
x2 = 0.6 | 0.255
x2 = 0.603 | 0.254
x2 = 0.65 | 0.248
x2 = 0.6984 | 0.242
x2 = 0.7 | 0.242
x2 = 0.75 | 0.237
x2 = 0.7991 | 0.231
x2 = 0.8 | 0.232
x2 = 0.85 | 0.227
x2 = 0.8858 | 0.224
x2 = 0.9 | 0.222
x2 = 0.9189 | 0.221
x2 = 0.95 | 0.218

ClCCl + CCCCCC
298 K, 101 kPa
Details | viscosity [mPa·s]
x2 = 0.1331 | 0.386
x2 = 0.2381 | 0.367
x2 = 0.3208 | 0.354
x2 = 0.3873 | 0.346
x2 = 0.4407 | 0.34
x2 = 0.4419 | 0.34
x2 = 0.4746 | 0.335
x2 = 0.4862 | 0.335
x2 = 0.5144 | 0.333
x2 = 0.5244 | 0.332
x2 = 0.5599 | 0.329
x2 = 0.6138 | 0.324
x2 = 0.6791 | 0.32
x2 = 0.7601 | 0.314
x2 = 0.8633 | 0.308

C[Si]1(C)O[Si](C)(C)O[Si](C)(C)O[Si](C)(C)O1 + CCCCCCCCCC
viscosity [mPa·s], 103 kPa
Details | 298.15 K | 308.15 K | 318.15 K
x1 = 0.05 | 0.844 | 0.733 | 0.645
x1 = 0.1 | 0.867 | 0.753 | 0.664
x1 = 0.1501 | 0.899 | 0.778 | 0.683
x1 = 0.2 | 0.931 | 0.801 | 0.703
x1 = 0.25 | 0.965 | 0.831 | 0.725
x1 = 0.3 | 1.007 | 0.865 | 0.753
x1 = 0.35 | 1.047 | 0.895 | 0.778
x1 = 0.3999 | 1.086 | 0.93 | 0.802
x1 = 0.45 | 1.134 | 0.964 | 0.833
x1 = 0.5 | 1.183 | 1.006 | 0.867
x1 = 0.5501 | 1.232 | 1.048 | 0.909
x1 = 0.6 | 1.292 | 1.097 | 0.943
x1 = 0.65 | 1.358 | 1.15 | 0.987
x1 = 0.6999 | 1.431 | 1.209 | 1.035
x1 = 0.75 | 1.511 | 1.273 | 1.087
x1 = 0.8 | 1.6 | 1.345 | 1.145
x1 = 0.85 | 1.699 | 1.423 | 1.208
x1 = 0.9 | 1.811 | 1.511 | 1.278
x1 = 0.95 | 1.936 | 1.61 | 1.356

C[Si]1(C)O[Si](C)(C)O[Si](C)(C)O[Si](C)(C)O1 + CCCCCCCCCCCC
viscosity [mPa·s], 103 kPa
Details | 298.15 K | 308.15 K | 318.15 K
x1 = 0.05 | 1.314 | 1.107 | 0.951
x1 = 0.1 | 1.32 | 1.113 | 0.962
x1 = 0.15 | 1.342 | 1.132 | 0.972
x1 = 0.2 | 1.352 | 1.141 | 0.982
x1 = 0.25 | 1.366 | 1.153 | 0.991
x1 = 0.3 | 1.384 | 1.167 | 1
x1 = 0.35 | 1.402 | 1.183 | 1.012
x1 = 0.3999 | 1.431 | 1.202 | 1.028
x1 = 0.45 | 1.454 | 1.225 | 1.048
x1 = 0.5 | 1.489 | 1.251 | 1.068
x1 = 0.5501 | 1.517 | 1.278 | 1.089
x1 = 0.6 | 1.554 | 1.309 | 1.114
x1 = 0.65 | 1.6 | 1.345 | 1.142
x1 = 0.6999 | 1.643 | 1.38 | 1.173
x1 = 0.75 | 1.7 | 1.426 | 1.209
x1 = 0.7999 | 1.759 | 1.473 | 1.248
x1 = 0.85 | 1.828 | 1.523 | 1.292
x1 = 0.9 | 1.91 | 1.588 | 1.343
x1 = 0.95 | 1.985 | 1.652 | 1.39
